{"source": "paper PMC6934184", "about": "“Selective DNA-PKcs inhibition extends the therapeutic index of localized radiotherapy and chemotherapy” (The Journal of Clinical Investigation, 2019)", "molecular_target": "T1, ALK L1196M (Homo sapiens, UniProt Q9UM73, L1196M)", "T1 construct": "purchased Thermo Fisher Scientific (Life Technologies) SelectScreen", "T1 sequence (Q9UM73 19-1620 L1196M)": "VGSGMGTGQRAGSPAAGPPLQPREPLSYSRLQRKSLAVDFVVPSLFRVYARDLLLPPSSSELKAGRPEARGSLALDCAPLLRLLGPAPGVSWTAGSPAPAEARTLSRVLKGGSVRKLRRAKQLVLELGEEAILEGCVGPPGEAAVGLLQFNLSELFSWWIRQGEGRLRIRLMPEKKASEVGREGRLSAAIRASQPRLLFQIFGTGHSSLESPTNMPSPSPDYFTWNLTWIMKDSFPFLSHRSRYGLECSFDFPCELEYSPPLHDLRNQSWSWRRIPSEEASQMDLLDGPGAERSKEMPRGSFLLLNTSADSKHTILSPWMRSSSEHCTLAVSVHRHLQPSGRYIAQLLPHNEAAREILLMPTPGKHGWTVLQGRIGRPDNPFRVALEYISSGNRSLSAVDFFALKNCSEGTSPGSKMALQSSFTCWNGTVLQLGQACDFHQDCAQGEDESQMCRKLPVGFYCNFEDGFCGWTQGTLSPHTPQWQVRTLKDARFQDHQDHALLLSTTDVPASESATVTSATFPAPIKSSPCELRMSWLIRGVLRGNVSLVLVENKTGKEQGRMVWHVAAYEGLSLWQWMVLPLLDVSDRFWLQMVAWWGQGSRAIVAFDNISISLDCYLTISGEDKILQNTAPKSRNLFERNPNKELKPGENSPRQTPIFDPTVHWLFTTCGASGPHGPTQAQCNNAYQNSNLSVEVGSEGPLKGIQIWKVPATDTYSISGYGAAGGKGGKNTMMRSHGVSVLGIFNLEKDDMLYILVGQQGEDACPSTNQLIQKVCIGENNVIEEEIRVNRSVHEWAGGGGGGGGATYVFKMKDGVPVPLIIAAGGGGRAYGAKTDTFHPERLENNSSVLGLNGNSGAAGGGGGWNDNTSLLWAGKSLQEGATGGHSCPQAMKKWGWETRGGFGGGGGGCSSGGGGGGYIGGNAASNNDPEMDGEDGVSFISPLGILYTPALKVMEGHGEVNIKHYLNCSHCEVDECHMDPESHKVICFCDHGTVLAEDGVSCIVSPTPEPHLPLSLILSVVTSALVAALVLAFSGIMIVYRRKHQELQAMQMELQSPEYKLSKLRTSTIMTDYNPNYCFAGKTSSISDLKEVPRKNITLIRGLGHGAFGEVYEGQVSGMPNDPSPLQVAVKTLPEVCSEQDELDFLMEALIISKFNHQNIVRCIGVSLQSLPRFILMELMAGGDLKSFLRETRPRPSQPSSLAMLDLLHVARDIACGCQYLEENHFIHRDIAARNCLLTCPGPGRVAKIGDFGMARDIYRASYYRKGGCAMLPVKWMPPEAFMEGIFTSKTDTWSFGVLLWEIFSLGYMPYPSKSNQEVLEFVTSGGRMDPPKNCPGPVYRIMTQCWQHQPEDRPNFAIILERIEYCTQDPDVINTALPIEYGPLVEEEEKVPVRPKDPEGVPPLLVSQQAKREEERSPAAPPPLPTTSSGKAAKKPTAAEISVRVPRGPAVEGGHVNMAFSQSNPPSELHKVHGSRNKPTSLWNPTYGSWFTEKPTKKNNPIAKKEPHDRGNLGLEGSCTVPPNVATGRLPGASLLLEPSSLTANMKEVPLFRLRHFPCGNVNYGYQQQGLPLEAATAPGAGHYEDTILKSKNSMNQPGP", "experiment": "SelectScreen LanthaScreen", "type": "binding", "conditions": "read-out: % displacement", "how_it_was_run": "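NU5455 was profiled across the SelectScreen Broad panel of kinase activity and binding assays. Z'LYTE reactions such as CSF1R ran at apparent Km ATP, while the Adapta CAMK1 assay used ATP listed as 10. Values are given as percent.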"}
{"smiles": "CN(C(=O)CN1CCOCC1)c1ccc2sc3c(-c4cccc5c(=O)cc(N6CC7CCC(C6)O7)oc45)cccc3c2c1", "note": "[NU5455]", "values": [{"measurement": "inhibition at 1 µM", "value": -1.7, "unit": "%"}]}
